The test system of series [1] is CaMKII-δ9. The experiment in a line: CaMKII-δ9 protein level, phosphorylation and oxidation in NRVMs under stress. Type of series: cell-based, rat. To be noted: for expression of CaMKII-δ9 (protein): Dox 1 μM or H2O2 200 μM, 24 h. On the procedure:
NRVMs were isolated from 1-day-old Sprague-Dawley rats, and adenovirus-mediated gene transfer was implemented using methods described previously (Zhang, T. et al., Nature medicine 22, 175-182, doi: 10.1038/nm.4017 (2016)). […]
(§1) Western blot and co-immunoprecipitation were performed as previously described (Zhang, T. et al., Nature medicine 22, 175-182, doi:10.1038/nm.4017 (2016)).

The subject of series [2] is UBE2T. The series can be described thus: Immunostaining of myc-tagged UBE2T location in NRVMs. Further details: dose or concentration left out as unconfirmed. Type of series: cell-based, rat. Here is the method: (§2) Cardiomyocyte immunofluorescence was measured as previously described (Erickson, J. R. et al., Physiological reviews 91, 889-915, doi:10.1152/physrev.00018.2010 (2011)).

For series [3], the system named is UBE2T. The series can be described thus: UBE2T protein level by western blot in NRVMs. It counts as cell-based, rat. The following applies: for CaMKII-δ9-induced reduction of the UBE2T protein level: β-lac 5 μM, MG132 10 μM. On the procedure: NRVMs were isolated from 1-day-old Sprague-Dawley rats, and adenovirus-mediated gene transfer was implemented using methods described previously (Zhang, T. et al., Nature medicine 22, 175-182, doi: 10.1038/nm.4017 (2016)). NRVMs were exposed to H2O2 (200 μM) or Dox (1 μM) for 24 h.
as §1
Background: A western blot detects proteins with antibodies after separation by electrophoresis.

Series [4] deals with NRVMs. The experiment in a line: DNA damage by γH2AX and comet assay in NRVMs. Type of series: cell-based, rat. To be noted: β-lac 5 μM, MG132 10 μM. Here is the method:
Cultured neonatal rat ventricular cardiomyocytes (NRVMs) were treated as indicated, and then washed with cold PBS, following the protocol of the comet assay kit (Trevigen, Cat #: 4250-050-K) under alkaline conditions. Mean tail moments were quantified for 300-500 cells per sample in each experiment, with Comet Assay Software Project (v1.2.3b1).
as §2

Series [5] concerns exon 16 of CaMKII-δ. The experiment in a line: Transverse aortic constriction (TAC) in CaMKII-δ9 shRNA transgenic mice. It counts as in vivo, mouse. Here is the method:
Transverse aortic constriction (TAC) was performed in 6-week-old male mice. Mice were anesthetized under 3% isoflurane via intubation, the chest was opened, the aortic arch was visualized, and a 7-0 silk suture was passed under the arch between the innominate and left common carotid arteries. The suture was secured around both the aorta and a 28-gauge needle, the needle was removed, the chest was closed, and the mouse was extubated. Sham-operated mice underwent an identical procedure except for the aortic ligation. Mice were given buprenorphine via intraperitoneal injection during recovery.
The sequence of miR30-based CaMKII-δ9 shRNA was 5′-[…] […]-3′ (SEQ ID NO: 37). The shRNA with an N-terminal EGFP tag and C-terminal BGH poly A sequences was cloned into the pLKO.1 plasmid containing the U6 promoter. After linearization, gel-purification was performed. This construct was microinjected into the pronuclei of fertilized C57BL/6J mouse eggs. PCR was used for genotyping. The primer sequences were 5′-[…]-3′ (forward) (SEQ ID NO: 38) and 5′-[…]-3′ (reverse) (SEQ ID NO: 39).
Echocardiographic analysis using a Vevo2100 digital imaging system (Visual Sonics, Toronto, ON, Canada) was performed under 1% isoflurane at 6 and 10 weeks of age, with mid-ventricular M and B mode measurements acquired in the parasternal short-axis view at the level of the papillary muscles. Once the mice were acclimated to the procedures, images were stored in digital format on a magnetic optical disk for review and analysis. Measurements of the LV internal end-diastolic diameter (LVIDd) were made at the time of apparent maximal LV diastolic dimension, while measurements of the LV internal end-systolic diameter (LVIDs) were taken at the time of the most anterior systolic excursion of the posterior wall. LV ejection fraction (EF) was calculated by the cubic method: LVEF (%)={(LVIDd)^3−(LVIDs)^3}/(LVIDd)^3×100, and LV fractional shortening (FS) was calculated by FS (%)=(LVIDd−LVIDs)/LVIDd×100. The data were averaged from 5 cardiac cycles.
Histological analysis of heart tissue was as previously described (Zhang, T. et al. Nature medicine 22, 175-182, doi: 10.1038/nm.4017 (2016)). The CardioTACS™ in situ apoptosis detection kit (Roche Applied Science, Cat #: 11684795910) was used for TUNEL staining as previously described (Zhang, T. et al. Nature medicine 22, 175-182, doi:10.1038/nm.4017 (2016)).

The values that follow come from patent US20220243249A1, “ANTAGONISTS OF CAMKII-DELTA 9 AND USES THEREOF” (PEKING UNIVERSITY, priority 2019, published 2022).

Peptide text beside a SMILES is read from it. * marks the point of attachment. Cbz = O=C(OCc1ccccc1)*

For the molecule `COc1cccc2c1C(=O)c1c(O)c3c(c(O)c1C2=O)C[C@@](O)(C(=O)CO)C[C@@H]3O[C@H]1C[C@H](N)[C@H](O)[C@H](C)O1` [Doxorubicin], in series [1], the “expression of CaMKII-δ9 (protein)” value is “significantly elevated”. Further, in series [1] (Dox 1 μM, 30 and 60 min), the “oxidation level of CaMKII-δ9” value is “increased” and the “phosphorylation level of CaMKII-δ9” value was “increased”.

As to `CC(C)C[C@@H](C=O)NC(=O)[C@H](CC(C)C)NC(=O)[C@H](CC(C)C)NC(=O)OCc1ccccc1` [MG132] (Cbz-Leu-Leu-Leu-aldehyde), the “subcellular location of UBE2T” value in series [2] is “present in both the nuclear and cytosolic compartments”. In series [3], the “CaMKII-δ9-induced reduction of the UBE2T protein level” value is on record as “fully abolished”. In addition, the “CaMKII-δ9-mediated γH2AX upregulation” value in series [4] is “block”.

For the molecule `OO` [H2O2], in series [1], the “expression of CaMKII-δ9 (protein)” value is on record as “significantly elevated”. In addition, in series [3] (NRVMs, western blot), the UBE2T protein level result was “decreased”.

Turning to `CC(C)[C@H](O)[C@@]12NC(=O)[C@H](C)[C@@H]1OC2=O` [β-lac, clasto-lactacystin β-lactone], in series [3], the “CaMKII-δ9-induced reduction of the UBE2T protein level” value was “fully abolished”. In addition, the “CaMKII-δ9-mediated γH2AX upregulation” value in series [4] is recorded as “block”.

B1: CaMKII-δ9 shRNA: miR30-based CaMKII-δ9 shRNA (SEQ ID NO: 37) targeting exon 16, expressed transgenically in mice (nucleic acid)
DNA: GAAGGTATATTGCTGTTGACAGTGAGCGCAATCCACAACCCTGACGGAAATAGTGAAGCCACAGATGTATTTCCGTCAGGGTTGTGGATTATGCCTACTGCCTCGG
As for B1, in series [5] (4 weeks after TAC surgery), the “TAC-induced cardiac DNA damage (γH2AX)” value is “reduced”; the TAC-induced cardiac hypertrophy result is “markedly attenuated”; the “TAC-induced cardiomyocyte death (TUNEL)” value is reported as “reduced”; the “TAC-induced contractile dysfunction (EF, FS)” value is “markedly attenuated”. In addition, in series [5] (4 weeks after TAC surgery), the “cardiac UBE2T protein abundance” value is listed as “augmented”. The TAC-induced premature death result in series [5] (Kaplan-Meier survival) is on record as “markedly attenuated”.
